From US6541467B1, “Thrombin inhibitors having a lactam at P3” (Corvas International, Inc., priority 2000, dated 2003) come the findings set out here.

Holding throughout (type): biochemical
Assay [1] addresses T1, bovine pancreatic trypsin (Bos taurus, UniProt P00760).
T1 sequence (P00760 24-246): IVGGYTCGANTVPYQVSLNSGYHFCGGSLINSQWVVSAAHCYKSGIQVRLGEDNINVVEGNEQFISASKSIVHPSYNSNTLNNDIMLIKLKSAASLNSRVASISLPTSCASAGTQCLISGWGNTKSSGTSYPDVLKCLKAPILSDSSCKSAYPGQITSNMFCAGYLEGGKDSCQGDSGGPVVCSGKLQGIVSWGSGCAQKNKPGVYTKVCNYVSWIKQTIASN
The assay is described as follows: Trypsin chromogenic enzyme assay. As for the experimental part:
(§1) The ability of compounds of the present invention to act as a selective inhibitor of thrombin activity was assessed by determining the concentration of test-compound which inhibited the activity of this enzyme by 50%, (IC50), and comparing this value to that determined for all or some of the following related serine proteases: recombinant tissue plasminogen activator (rt-PA), plasmin, activated protein C, chymotrypsin, factor Xa and trypsin.
(§2) The buffer used for all assays was HBSA (10 mM HEPES, pH 7.5, 150 mM sodium chloride, 0.1% bovine serum albumin).
(§3) The assay for IC50 determinations was conducted by combining in appropriate wells of a Corning microtiter plate, 50 microliters of HBSA, 50 microliters of the test compound at a specified concentration (covering a broad concentration range) diluted in HBSA (or HBSA alone for V0 (uninhibited velocity) measurement), and 50 microliters of the enzyme diluted in HBSA. Following a 30 minute incubation at ambient temperature, 50 microliters of the substrate at the concentrations specified below were added to the wells, yielding a final total volume of 200 microliters. The initial velocity of chromogenic substrate hydrolysis was measured by the change in absorbance at 405 nm using a Thermo Max® Kinetic Microplate Reader over a 5 minute period in which less than 5% of the added substrate was utilized. The concentration of added inhibitor which caused a 50% decrease in the initial rate of hydrolysis was defined as the IC50 value.
Trypsin catalytic activity was determined using the chromogenic substrate, S-2222 (benzoyl-L-isoleucine-L-glutamic acid-[gamma-methyl ester]-L-arginine-p-nitroanilide), which was obtained from DiaPharma Group. […] Purified (3×-crystallized; TRL3) bovine pancreatic trypsin was obtained from Worthington Biochemical Corp. The enzyme was reconstituted in deionized water and diluted into HBSA prior to assay in which the final concentration was 0.5 nM.

Another assay addresses T2, human plasmin (Homo sapiens, UniProt P00747).
T2 construct: Purified human plasmin; purchased Enzyme Research Laboratories, Inc
The assay is described as follows: Plasmin chromogenic enzyme assay. As for the experimental part: as §1, §2, §3
Plasmin catalytic activity was determined using the chromogenic substrate, S-2366 [L-pyroglutamyl-L-prolyl-L-arginine-p-nitroaniline hydrochloride], which was obtained from DiaPharma group. The substrate was made up in deionized water followed by dilution in HBSA prior to the assay in which the final concentration was 300 micromolar (about 2:.5-times Km). Purified human plasmin was obtained from Enzyme Research Laboratories, Inc. The enzyme was diluted into HBSA prior to assay in which the final concentration was 1.0 nM.

Another assay concerns the target T3, human α-thrombin (Homo sapiens, UniProt P00734).
T3 construct: Purified human α-thrombin; purchased Enzyme Research Laboratories, Inc
Briefly: Thrombin (fIIa) chromogenic enzyme assay. As to conditions: for IC50: 0 min. The method, then: For screening compounds using these assays, the compounds of the present invention are dissolved in buffer to give solutions containing concentrations such that assay concentrations range from 0 to 100 micromolar. In the assays for thrombin, plasmin, t-PA, aPC, chymotrypsin, and trypsin, a chromogenic synthetic substrate is added to a solution containing test compound and the enzyme of interest and the residual catalytic activity of that enzyme is determined spectrophometrically. The IC50 of a compound of the present invention is determined from the rate of substrate turnover caused by the specific enzyme being measured. IC50 is the concentration of test compound which gives 50% inhibition of the rate of substrate turnover. Likewise, the Ki of a compound of the present invention is determined from the rate of substrate turnover caused by the specific enzyme being measured at various […] concentrations. Example A provides exemplars of in vitro assays used to select the compounds of the present invention.
as §1, §2
as §3, with “Following a 30 minute incubation at ambient temperature, 50 microliters of the substrate at the concentrations specified below were added to the wells, yielding a final total volume of 200 microliters.” left out
Enzyme activity was determined using the chromogenic substrate, Pefachrome t-PA (CH3SO2-D-hexahydrotyrosine-glycyl-L-Arginine-p-nitroaniline, obtained from Pentapharm Ltd.). The substrate was reconstituted in deionized water prior to use. Purified human α-thrombin was obtained from Enzyme Research Laboratories, Inc. The buffer used for all assays was HBSA (10 mM HEPES, pH 7.5, 150 mM sodium chloride, 0.1% bovine serum albumin).
The initial velocity of Pefachrome t-PA hydrolysis was measured by the change in absorbance at 405 nm using a Thermo Max® Kinetic Microplate Reader over a 5 minute period in which less than 5% of the added substrate was utilized. The concentration of:added inhibitor which caused a 50% decrease in the initial rate of hydrolysis was defined as the IC50 value.

In another assay the target is T4, Factor Xa (Homo sapiens, UniProt P00742).
T4 construct: purchased Enzyme Research Laboratories, Inc. (South Bend, Ind.)
The assay is described as follows: Factor Xa chromogenic enzyme assay. As to conditions: read-out: fXa IC50. The method, then: as §1, §2, §3
Factor Xa catalytic activity was determined using the chromogenic substrate S-2765 (N-benzyloxycarbonyl-D-arginine-L-glycine-L-arginine-p-nitroaniline), obtained from DiaPharma Group (Franklin, Ohio). All substrates were reconstituted in deionized water prior to use. […] Purified human Factor X was obtained from Enzyme Research Laboratories, Inc. (South Bend, Ind.) and Factor Xa (FXa) was activated and prepared from it as described [Bock, P. E., Craig, P. A., Olson, S. T., and Singh, P. Arch. Biochem. Biophys. 273:375-388 (1989)]. The enzyme was diluted into HBSA prior to assay in which the final concentration was 0.25 nM.

T2 sequence (P00747 581-810 limits assumed): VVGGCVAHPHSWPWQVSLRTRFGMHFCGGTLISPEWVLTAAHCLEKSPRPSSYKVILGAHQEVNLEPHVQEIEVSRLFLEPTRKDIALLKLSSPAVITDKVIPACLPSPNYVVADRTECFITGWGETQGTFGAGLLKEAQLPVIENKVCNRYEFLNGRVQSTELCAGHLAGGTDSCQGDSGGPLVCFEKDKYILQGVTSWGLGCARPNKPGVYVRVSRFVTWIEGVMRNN
T2 sequence (P00747 97-580 partner limits assumed): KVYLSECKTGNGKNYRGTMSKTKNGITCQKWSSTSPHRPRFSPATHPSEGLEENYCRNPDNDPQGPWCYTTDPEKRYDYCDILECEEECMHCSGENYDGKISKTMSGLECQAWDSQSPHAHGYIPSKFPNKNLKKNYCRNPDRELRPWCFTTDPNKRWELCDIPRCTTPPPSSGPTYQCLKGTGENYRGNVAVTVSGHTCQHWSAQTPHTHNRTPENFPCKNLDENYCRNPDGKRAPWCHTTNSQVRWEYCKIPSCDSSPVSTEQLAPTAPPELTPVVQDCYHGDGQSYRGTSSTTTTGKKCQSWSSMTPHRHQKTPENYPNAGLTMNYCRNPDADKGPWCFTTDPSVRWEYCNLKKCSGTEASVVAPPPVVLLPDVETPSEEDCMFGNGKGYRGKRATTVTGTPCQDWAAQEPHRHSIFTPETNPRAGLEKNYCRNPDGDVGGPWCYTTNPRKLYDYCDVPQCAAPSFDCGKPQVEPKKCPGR
T4 sequence (P00742 235-488 limits assumed): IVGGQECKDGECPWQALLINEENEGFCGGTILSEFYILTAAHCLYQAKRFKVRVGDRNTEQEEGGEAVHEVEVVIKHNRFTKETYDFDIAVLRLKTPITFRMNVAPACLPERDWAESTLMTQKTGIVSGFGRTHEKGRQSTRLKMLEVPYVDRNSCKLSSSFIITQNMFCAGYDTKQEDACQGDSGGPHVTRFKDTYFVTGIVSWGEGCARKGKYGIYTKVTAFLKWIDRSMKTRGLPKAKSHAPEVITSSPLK
T4 sequence (P00742 41-179 partner limits assumed): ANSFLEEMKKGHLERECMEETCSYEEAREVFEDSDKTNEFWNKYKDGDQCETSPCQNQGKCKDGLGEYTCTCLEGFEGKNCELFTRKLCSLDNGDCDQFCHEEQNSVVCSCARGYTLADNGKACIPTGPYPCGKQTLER

In the case of `N=C(N)c1ccc(CNC(=O)CN2CCCC[C@H](NS(=O)(=O)c3ccc4c(c3)CCO4)C2=O)s1` [Example 24, 3-(S)-(2,3-Dihydrobenzo[b]furanyl-5-sulfonyl)amino-1-(2-amindino-5-methylenecarboxamidomethylthiophenyl)-4,5,6,7-tetrahydroazepin-2-one], the IC50 in assay [1] is 100 to 300 nM; on human plasmin, at least 2500 nM; against human α-thrombin, at most 100 nM; at Factor Xa, 300 to 2500 nM. The molecule further gave a Ki at human α-thrombin of at most 100 nM.

Turning to `Cc1nc(N)ccc1CNC(=O)CN1CCCC[C@H](NS(=O)(=O)c2ccc3c(c2)CCO3)C1=O` [Example 35, 3-(S)-(2,3-Dihydrobenzo[b]furanyl-5-sulfonyl)amino-1-(2-amino-6-methyl-5-methylenecarboxamidomethylpyridinyl)-4,5,6,7-tetrahydroazepin-2-one], the IC50 in assay [1] was at least 2500 nM; against human plasmin it was at least 2500 nM; at human α-thrombin, 100 to 300 nM; on Factor Xa, at least 2500 nM. The Ki on human α-thrombin was at most 100 nM.

For `N=C(N)N1CCC(CNC(=O)CN2CCCC[C@H](NS(=O)(=O)c3ccc4c(c3)CCO4)C2=O)CC1` [Example 36, 3-(S)-(2,3-Dihydrobenzo[b]furanyl-5-sulfonyl)amino-1-(1-amidino-4-methylenecarboxamidomethylperidinyl)-4,5,6,7-tetrahydroazepin-2-one], the IC50 in assay [1] is at least 2500 nM; against human plasmin, at least 2500 nM; against human α-thrombin, 100 to 300 nM; on Factor Xa, at least 2500 nM. This molecule also returned a Ki on human α-thrombin of at most 100 nM.

Turning to `N/C(=N\O)c1ccc(CNC(=O)CN2CCCC[C@H](NS(=O)(=O)c3ccc4c(c3)CCO4)C2=O)cc1` [Example 37], the IC50 in assay [1] was 300 to 2500 nM; against human plasmin, at least 2500 nM; on human α-thrombin it was 300 to 2500 nM; at Factor Xa it was at least 2500 nM. The molecule further yielded a Ki on human α-thrombin of 100 to 300 nM.

Regarding `N=C(N)c1ccc(CNC(=O)CN2CCCC[C@H](NS(=O)(=O)c3ccc4c(c3)CCO4)C2=O)cc1` [Example 38], the IC50 in assay [1] is at most 100 nM; at human plasmin, at least 2500 nM; against human α-thrombin it was at most 100 nM; at Factor Xa, at least 2500 nM. For the same molecule, the Ki at human α-thrombin was at most 100 nM.

Regarding `N=C(N)c1ccc(CNC(=O)CN2CCCC[C@H](NS(=O)(=O)c3ccc4c(c3)CCO4)C2=O)c(F)c1` [Example 39], the IC50 in assay [1] was 100 to 300 nM; against human plasmin, at least 2500 nM; against human α-thrombin it was 100 to 300 nM; at Factor Xa, at least 2500 nM. The same molecule showed a Ki on human α-thrombin of at most 100 nM.

In the case of `N=C(N)N1CCC(CNC(=O)CN2CCCC[C@H](NS(=O)(=O)c3ccc4ccccc4c3)C2=O)CC1` [Example 40], the IC50 (in assay [1]; at human plasmin; on human α-thrombin; at Factor Xa) was at least 2500 nM throughout. Also, the Ki on human α-thrombin was at least 2500 nM.

Take `N=C(N)N1CCC(CNC(=O)CN2CCCC[C@H](NS(=O)(=O)c3ccccc3)C2=O)CC1` [Example 41, 3-(Benzenesulfonyl)amino-1-(1-amidino-4-methylenecarboxamido-methylpiperidinyl)-4,5,6,7-tetrahydroazepin-2-one]: the half-maximal inhibitory concentration (IC50) in assay [1] was at least 2500 nM; against human plasmin, at least 2500 nM; on human α-thrombin, 300 to 2500 nM; on Factor Xa, at least 2500 nM. On human α-thrombin, this molecule came in with an inhibitory constant (Ki) of at most 100 nM.

Turning to `COc1ccc(OC)c(S(=O)(=O)N[C@H]2CCCCN(CC(=O)NCC3CCN(C(=N)N)CC3)C2=O)c1` [Example 42], the IC50 was at least 2500 nM in assay [1], at least 2500 nM at human plasmin, 300 to 2500 nM on human α-thrombin and at least 2500 nM at Factor Xa. Besides, the Ki on human α-thrombin lay in the range of 100 to 300 nM.

For `COc1ccc(S(=O)(=O)N[C@H]2CCCCN(CC(=O)NCC3CCN(C(=N)N)CC3)C2=O)cc1OC` [Example 43], the IC50 in assay [1] was at least 2500 nM; against human plasmin, at least 2500 nM; against human α-thrombin, 300 to 2500 nM; on Factor Xa it was at least 2500 nM. At human α-thrombin, this molecule showed a Ki of at most 100 nM.

The IC50 is the concentration at which inhibition is half-maximal. Usually Ki stands for the equilibrium dissociation constant of an inhibitor or competing ligand from its target. Higher therefore signals weaker binding.
